Consider three molecules from patent US20230136562A1, “SPIROUREA DERIVATIVES” (Idorsia Pharmaceuticals Ltd, priority 2020, published 2023).

Where two headings read alike, the source gives them in different places.

One experiment concerns the target T1, Kv7.2/7.3 (Homo sapiens, UniProt O43525+O43526).
T1 construct: expressed in transfected cells; host or cells: HEK293
Put plainly: Kv7.2/3 assay (FLIPR potassium assay, agonist mode). The class given is cell-based. The settings on record: Kv7.2/7.3 activation; HEK293 cells, human KCNQ2 and KCNQ3. Here is the method: HEK293 cells were stably transfected with the appropriate ion channel cDNA(s) (human KCNQ2 and KCNQ3 genes). Cells were cultured in Dulbecco's Modified Eagle Medium/Nutrient mixture F-12 (D-MEM/F-12) supplemented with 10% fetal bovine serum, 100 U/mL penicillin G sodium, 100 µg/mL streptomycin sulfate and selection antibiotics. FLIPR Test Procedure: For FLIPR assay, cells were plated in 384-well black clear-bottomed microtiter plates (BD Biocoat Poly-D-Lysine Multiwell Cell Culture Plate) at 15'000 to 30'000 cells per well. Cells were incubated at 37° C. overnight or until cells reached sufficient density in the wells (near confluent monolayer) to use in fluorescence assays. […] Assays were performed with the FLIPR potassium assay kit (Molecular Devices) according to the manufacturer's instructions. Dye-loading: Growth media was removed and replaced with 20 μL of dye loading buffer for 60 min at room temperature. FLIPR Recording (agonist mode): Stock solutions of test compounds were prepared at a concentration of 33.3 mM in DMSO. 5 μL of 5× concentrated test, vehicle, or control compounds solutions prepared in the stimulation buffer (K^+-free buffer with 5 mM TI^+) were added to each well and fluorescence recording was continued for 5 min. The agonist effect (EC50 and % effect) of test or control compounds on Kv7 channels was determined as follows: Raw data was exported using Screenworks® 4.2 software and the fluorescence traces were analysed using Microsoft Excel (Microsoft Corp., Redmond, Wash.). The test compounds responses were expressed as % of maximum response of the control compound Flupirtine (Sigma-Aldrich), which was tested at concentrations ranging from 0.03 to 100 μM. Concentration-response data were fitted to a Hill equation. Non-linear least squares fits were made assuming a simple binding model. If appropriate, fits were weighted by the standard deviation. No assumptions about the fit parameters were made; the fit parameters were determined by the algorithm.

In experiment [1] the test system is primary neuronal cultures from embryonic rat brains. The experiment in a line: Rat oscillation assay (FLIPR, neuronal calcium oscillations). The class given is cell-based. The note with it: Rattus norvegicus. The gist of the method: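 Cortical neurons from E18 Wistar rat embryos, cultured 8–10 days at high density, loaded with 1 μM Fluo-8 AM; calcium oscillations recorded by FLIPR once per second in Mg-free HBSS with 2 mM CaCl2, 20 mM HEPES, pH 7.4. Two acquisitions ("Acute", 500 sec, compound added at 250 sec; "20 min"), ± Kv7 blocker XE-991.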

The mark [2] stands for this setting: 20 min, AUC of fluorescence measured 20 min after compound addition, read-out: FLIPR: IC50 [nM] 20 min.
The mark [3] stands for this setting: Acute phase, ratio of AUC fluorescence before and after compound addition, read-out: FLIPR: IC50 [nM] acute.

Molecule `O=C(NC1CC2(CC2)C1)N[C@@H](CO)c1cccc(C(F)(F)F)c1` (single isomer, unassigned) [Example 186] registered an EC50 on Kv7.2/7.3 of 23 nM. The values for the IC50 in experiment [1] (setting [2]) and in experiment [1] (setting [3]) were 40 nM and 20 nM, respectively.
The corresponding values for `O=C(NCc1cccc(C(F)(F)F)c1)NC1CC2(CC2)C1` [Example 2, 1-Spiro[2.3]hex-5-yl-3-(3-trifluoromethyl-benzyl)-urea] are 70 nM, 86 nM and 63 nM.
On to `O=C(NCc1cc(OCC(F)(F)F)ncn1)NC1CC2(CCC2)C1` [Example 59, 1-Spiro[3.3]hept-2-yl-3-[6-(2,2,2-trifluoro-ethoxy)-pyrimidin-4-ylmethyl]-urea], for which, at Kv7.2/7.3, the EC50 amounted to 12.4 nM. Also, the values for the IC50 in experiment [1] (setting [2]) and in experiment [1] (setting [3]) were 61 nM and 45 nM, respectively.
